The results in this text go back to patent US12338204B2, “Substituted bisphenylalkylurea compounds and methods of treating breast cancer” (Texas Tech University System, priority 2018, dated 2025).

Data set [1] has as its system TNBCs and their metastases. Kind of data set: Stopping the growth of TNBCs and their metastases. Conditions: statement in words, no data shown.
Data set [2] in a line: Ability to cross the blood-brain-barrier. Conditions: statement in words, no data shown.

Turning to `COc1ccc(C(CCCCNC(=O)Nc2ccc(Cl)c([N+](=O)[O-])c2)c2ccc(OC)cc2)cc1` [1-(5,5-bis(4-methoxyphenyl)pentyl)-3-(4-chloro-3-nitrophenyl)urea], the “stopping the growth of TNBCs and their metastases” value in data set [1] is “effective in stopping the growth of TNBCs and their metastases”. Moreover, the “ability to cross the blood-brain-barrier (BBB)” value in data set [2] was “shows the ability to cross the blood-brain-barrier”.
